Five substances from patent US20040142899A1, “Compositions and methods for enhanced biostability and altered biodistribution of oligonucleotides in mammals” (ISIS Pharmaceuticals, Inc., priority 1990, published 2004) can be followed below.

The test system of data set [1] is RNA complementary strand, Oligomer 41. Nature of the data set: Melting analysis (Tm) of 2′-O-pentylamino linker strand against RNA complementary strand. Format: binding. As to the method: (§1) The test oligonucleotides (either the phosphodiester, phosphorothioate, cholic acid conjugated phosphodiester, cholic acid conjugated phosphorothioate or 5′-aminolink intermediate phosphodiester or phosphorothioate oligonucleotides of the invention or otherwise) and either the complementary DNA or RNA oligonucleotides were incubated at a standard concentration of 4 μM for each oligonucleotide in buffer (100 mM NaCl, 10 mM Na-phosphate, pH 7.0, 0.1 mM EDTA). Samples were heated to 90 degrees C. and the initial absorbance taken using a Guilford Response II spectro-photometer (Corning, Inc., Corning, N.Y.). Samples were then slowly cooled to 15° C. and then the change in absorbance at 260 nm was monitored during the heat denaturation procedure. The temperature was elevated 1 degree/absorbance reading and the denaturation profile analyzed by taking the 1st derivative of the melting curve. Data was also analyzed using a two-state linear regression analysis to determine the Tm's. The results of these tests are shown in Table 3 as are the HPLC retention times of certain of the test compounds.
(§2) Melting analysis was conducted as per the method of Procedure B(1)(b).

The test system of data set [2] is DNA complementary strand, Oligomer 40. Kind of data set: Melting analysis (Tm) of 2′-O-pentylamino linker strand against DNA complementary strand. The data set is classed as binding. As to the method:
as §1, §2

Data set [3] relates to P-glycoprotein. Nature of the data set: Cell surface P-glycoprotein by immunofluorescent staining and flow cytometry in MDR 3T3 cells. The data set is classed as cell-based, human. Conditions: 1 μm administered with LIPOFECTIN, parallel experiment. As to the method: MDR 3T3 cells were treated with various concentrations of oligonucleotides ISIS 11073 (5′-cholesterol 5995), or ISIS 12064 (5′-cholesterol 10221; scrambled control) for 48 hours in serum free medium. The cells were recovered and stained with an anti-P-glycoprotein monoclonal antibody directed against a surface epitope, followed by a phycoerythrin-conjugated second antibody. The level of cell surface fluorescence in viable cells was quantitated using a flow cytometer; light scatter parameters were set so as to exclude non-viable cells. […] The results represent means and standard errors for 6 determinations.
Transfected MDR NIH 3T3 cells were grown and treated with oligonucleotides as described in Example (9)(B). MDR1 mRNA expression was measured by Northern blotting as described in Example (9)(C). In order to measure cell surface P-glycoprotein levels by flow cytometry, cells were seeded in 60 mm dishes at 1.2×10^6/plate in 5 ml of medium, grown for one day in 10% FBS/DMEM, and exposed to the oligomers in serum free medium. […] The level of R-PE fluorescence in viable cells (as determined by light scatter) was quantitated using the Cicero software application (Cytomation, Fort Collins, Co.) on a Becton Dickinson flow cytometer.
For orientation: In flow cytometry, cells or beads pass a laser one at a time.

The test system of data set [4] is P-glycoprotein. Kind of data set: P-glycoprotein expression by Western blotting in MDR 3T3 cells. The data set is classed as cell-based, human. Conditions: maximum only after 72 hours exposure. As to the method: Transfected MDR NIH 3T3 cells were grown and treated with oligonucleotides as described in Example (9)(B). In order to measure P-glycoprotein expression by Western blotting, cells were seeded in 60 mm dishes at 1.2×10^6 per dish and incubated for 24 hours in serum containing medium. The cells were treated with the oligomers for various times in serum free medium as described above. Cells were then extracted in lysis buffer (20 mM Tris, pH 7.5, 2 mM EDTA, 500 mM EGTA, 2 mM PMSF, 1 mM DTT, aprotonin (10 ug/ml), 0.5% Triton-X) and sonicated briefly. The lysate was spun in a microfuge tube for 20 minutes at 4° C. and the resulting supernatant was checked for protein content. Equal amounts of protein (usually 20 ug) were mixed with SDS sample buffer and boiled. Protein samples were separated by 8% SDS PAGE and the resolved proteins were electrophoretically transferred onto polyvinyllidene fluoride membranes (Millipore, Bedford, Mass.). The membranes were blocked (with 3% BSA, 2% non fat dry milk in PBS) and then treated with 2 ug/ml C219 anti-P-glycoprotein antibody (Signet, Dedham, Mass.). After washing three times with 0.1% Tween 20, the membranes were incubated with rabbit anti-mouse antibody (Cappel, Durham, N.C.). Immunoreactive proteins were visualized either by ECL (Enhanced Chemiluminescence, Amersham, Arlington Heights, Ill.) or with ^125I secondary antibodies.
For orientation: A western blot detects proteins with antibodies after separation by electrophoresis.

The subject of data set [5] is MDR1 mRNA. Nature of the data set: MDR1 mRNA expression by Northern blotting in MDR 3T3 cells. Format: cell-based, human.
For data set [6], the system named is MDR1 mRNA. The data set is described as above. The data set is classed as cell-based, human. To be noted: for MDR1 mRNA Level (arbitrary units) / % Control (MDR1 mRNA): oligonucleotide 1 μm, with Lipofectin; for MDR1 mRNA Level (arbitrary units): serum free medium; for % Control (MDR1 mRNA): control = untreated cells. As to the method:
NIH 3T3 cells transfected with a plasmid containing the human MDR1 gene (pSK1 MDR) have been previously described (Kane et al., Gene, 1989, 84, 439). These cells have proven to be useful models for the study of multi-drug resistance phenomena. Cells were grown in DMEM media containing 10% fetal bovine serum (FBS) and 60 ng/ml colchicine in an atmosphere of 95% air, 5% CO2.
Cells were grown in […] flasks.
To measure MDR1 mRNA expression by Northern blotting, total cellular RNA was isolated by lysis in 4M guanidium isothiocyanate followed by a cesium chloride gradient, and the RNA was resolved on 1.2% agarose gels containing 1.2% formaldehyde and transferred to nitrocellulose membranes (Dean et al., J. Biol. Chem., 1994, 269, 16416). The blots were hybridized with a ^32P radiolabeled human MDR1 cDNA probe. The MDR1 cDNA probe was isolated by performing a polymerase chain reaction on the pSK1 MDR plasmid, as described previously (Alahari et al., Nucl. Acids Res., 1993, 21, 4079). The following oligonucleotide primers were used for PCR: […]
The resulting fragment was checked on an agarose gel and was radiolabeled with ^32P-dCTP using a commercially available random primer labeling kit (Amersham, Arlington Heights, Ill.) according to the manufacturer's instructions. The filters were hybridized overnight in hybridization buffer (25 mM KPO4, pH 7.4; 5×SSC; 5×Denhardt's solution, 100 ug/ml Salmon sperm DNA and 50% formamide) (Alahari et al., Nucl. Acids Res., 1993, 21, 4079). This was followed by two washes with 1×SSC, 0.1% SDS and two washes with 0.25×SSC, 0.1% SDS. Hybridizing bands were visualized by exposure to X-OMAT AR film and quantitated using a PhosphorImager™ (Molecular Dynamics, Sunnyvale, Calif.). To confirm equal loading of RNA, the blots were stripped and reprobed with a ^32P-labeled beta-actin probe (Clontech, Palo Alto, Calif).
In initial experiments, the MDR 3T3 cells were exposed to 1.0 μm concentrations of several different antisense oligonucleotides, or control oligonucleotides, in the presence of 20 ug/ml LIPOFECTIN® for 24 hours. […] NIH 3T3 cells transfected with pSK1 MDR plasmid were grown to 90% confluence and treated with oligonucleotide (1 μm) for 24 hours in the presence of Lipofectin® in serum free medium. Total RNA was isolated and fractionated on agarose formaldehyde gels and blotted onto nitrocellulose membranes. These membranes were probed with a ^32P radiolabeled 1.0 kb MDR1 cDNA, and then stripped and reprobed with a ^32P radiolabeled beta-actin cDNA probe to confirm equal loading of RNA, allowing the levels of MDR1 transcripts to be normalized with regard to the beta-actin bands. Transcript levels were quantitated using a PHOSPHORIMAGER™ (Molecular Dynamics, Sunnyvale, Calif.); the values are expressed in arbitrary units (the beta-actin transcripts were essentially constant).

Data set [7] relates to E2 gene of bovine papilloma virus type 1 (BPV-1). Kind of data set: E2 transactivation assay (pE2RE-1-CAT) in I-38 cells. Format: cell-based, bovine papilloma virus-1. To be noted: I-38 cells transfected with pE2RE-1-CAT, harvested after 48 hours; lower = more inhibition; listed as positive control compound.
Another data set has as its system PECAM-1 mRNA. Kind of data set: PECAM-1 mRNA levels in murine liver (gene target specificity). The data set is classed as in vivo, mouse. To be noted: 10 mg/kg. As to the method: (§3) Mice were treated with oligonucleotides and examined as follows. […] Then, to induce ICAM-1 expression, bacterial lipopolysaccharide (LPS) was injected into the mice. After 2 hours, the mice were sacrificed, and particular organs, or specific portion thereof, were removed for further study. RNA was prepared from isolated, homogenized tissues essentially according to the guanidinium/CsCl purification method of Chirgwin et al. (Biochemistry, […], 18, 5294), electrophoresed and transferred to nylon membranes for hybridization studies (Northern analysis) according to methods well known in the art. In order to detect mouse ICAM-1 mRNA, a radiolabelled probe was prepared by random oligonucleotide-primed synthesis using a mouse ICAM-1 clone as a template. The blots were stripped and reprobed with a ^32P-labeled glyceraldehyde 3-phosphate dehydrogenase (G3PDH) probe (Clontech Laboratories, Inc., Palo Alto, Calif.) in order to confirm equal loading of RNA and to allow the levels of ICAM-1 transcripts to be normalized with regard to the G3PDH signals. Hybridizing bands were visualized by exposure to X-OMAT AR film and quantitated using a PHOSPHORIMAGER™ essentially according to the manufacturer's instructions (Molecular Dynamics, Sunnyvale, Calif.).
(§4) In similar experiments, the sequence (gene target) specificity of the 5′-cholesterol antisense oligonucleotide ISIS 8005 was examined.

A further data set has as its system mouse ICAM-1 mRNA. Nature of the data set: ICAM-1 mRNA levels in LPS-treated mice (Northern analysis). Format: in vivo. As to the method:
as §3

A further data set concerns c-raf mRNA. Nature of the data set: c-raf mRNA levels in murine liver (gene target specificity). The data set is classed as in vivo, mouse. Conditions: 10 mg/kg. As to the method:
as §3, §4

For data set [8], the system named is multi-drug resistant 3T3 cells.
[9] abbreviates: Oligomer 38 versus unmodified Oligomer 39.

Several values for one entry are separate records, joined by “and”; a condition that tells them apart may be missing. Equal entries are not always repeated.

For “GGA*-CCG-GA*A*-GGT-A*CG-A*G (GGACCGGAAGGTACGAG; chemistry not fully specified) [Oligomer 38, A* = pentylamino functionality at 2′-position]”, the “change in Tm (Δ38-39) RNA” value in [1] (setting [9]) is “(1.1) degrees”. For the same substance, the “Tm RNA” value in [1] (against Oligomer 41, 4 μM each strand, 100 mM NaCl, 10 mM Phosphate, 0.1 mM EDTA, pH 7.0) worked out at 58.0 degrees centigrade. For the same substance, in data set [2] (setting [9]), the “change in Tm (Δ38-39) DNA” value was “(6.1) degrees”. Also, in data set [2] (against Oligomer 40, 4 μM each strand, 100 mM NaCl, 10 mM Phosphate, 0.1 mM EDTA, pH 7.0), the “Tm DNA” value came to 54.5 degrees centigrade.
“CCA-TCC-CGA-CCT-CGC-GCT-CC (CCATCCCGACCTCGCGCTCC; chemistry not given here) [ISIS 5995]”: the “effect on P-glycoprotein surface expression” value with P-glycoprotein [3] is recorded as “less effective than an equivalent concentration of the cholesterol-conjugated analogs”. The “reduction of P-glycoprotein (Western assays)” value in the data set on P-glycoprotein [4] is listed as “at least 80%”. Also, the “treatment time of maximum specific reduction of MDR1 mRNA” value in the data set on MDR1 mRNA [5] (1 μm, 24, 48 and 72 hours tested) was 24 h. Besides, the “lowest concentration with some reduction in message levels” value with MDR1 mRNA [5] (dose response 50-1000 nM, 24 hours, LIPOFECTIN) is on record as 100 nM. The “reduction in MDR1 message levels” value in the data set on MDR1 mRNA [6] (1.0 μm, 20 ug/ml LIPOFECTIN, 24 hours) is reported as “about 50%”. Further, the “time to normal levels of MDR1 mRNA after return to medium without oligonucleotide” value in the data set on MDR1 mRNA [6] (after 24 hours exposure) is no more than 24 h. The “reduction in MDR1 message at maximal specific effect” value in the data set on MDR1 mRNA [6] (approximately 1.0 μm, 24 hours, LIPOFECTIN (FIG. 1)) is on record as “approximately 60%”. Also, in the data set on MDR1 mRNA [6] (24 hours), the “MDR1 mRNA Level (arbitrary units)” value is reported as 226,087 arbitrary units and the “% Control (MDR1 mRNA)” value was determined as 48%.
On to “5′-CTG-TCT-CCA-TCC-TCT-TCA-CT (CTGTCTCCATCCTCTTCACT; all phosphorothioate, sugars by position and methylation of C not given here) [Oligomer 42]”, for which the “percent acetylation (chloramphenicol acetyl transferase)” value in data set [7] was 29% and 30%.
Turning to U*GC-ATC-CCC-CAG-GCC-ACC-AT [ISIS 8005], the “effect on PECAM-1 mRNA levels” value in the data set on PECAM-1 mRNA is “no effect”. Moreover, the “ICAM-1 staining of liver sections” value in the data set with ICAM-1 protein (LPS-induced livers, HRP-conjugated secondary antibodies) is “virtually indistinguishable”. The “overall cellular structure of liver” value in the data set on ICAM-1 protein (mouse, in vivo) is reported as “no gross cellular defects”. The “reduction of hepatic ICAM-1 mRNA relative to LPS without oligonucleotide” value with mouse ICAM-1 mRNA (liver, 30 mg/kg i.v. 24 and 2 hours prior to LPS) is listed as “about 50%”. Further, in the data set on mouse ICAM-1 mRNA (lung samples, 30 mg/kg), the “reversal of LPS-mediated induction of ICAM-1 mRNA in the lung” value is reported as “neither ISIS 3082 nor its 5′-cholesterol conjugate ISIS 8005 was able to reverse the LPS-mediated induction of ICAM-1 to any great degree”. In addition, the “effect on c-raf mRNA levels” value with c-raf mRNA was “no effect”.
As for “CAC-CAC-CCC-CCT-CGC-TGG-TC (CACCACCCCCCTCGCTGGTC; chemistry not given here) [ISIS 10221, reference compound]”, the “effect on P-glycoprotein surface expression” value in the data set with P-glycoprotein [3] is “less effective than an equivalent concentration of the cholesterol-conjugated analogs”. The “reduction of P-glycoprotein (Western assays)” value in the data set on P-glycoprotein [4] is listed as “did not reduce P-glycoprotein expression”. Also, in data set [8], the “non-specific effects at higher concentrations” value was “reduced beta-actin message levels and increased cytotoxicity”. The MDR1/beta-actin ratio with MDR1 mRNA [5] (repeated experiments, laser densitometry of autoradiograms) came out at 1.01. In the data set on MDR1 mRNA [6] (24 hours), the “MDR1 mRNA Level (arbitrary units)” value was 456,522 arbitrary units and the “% Control (MDR1 mRNA)” value was 96%.
